The test system of series [1] is leucocytes. Kind of series: In vitro labelling of leucocytes. Conditions: ambient temperature. It counts as cell-based. As to the method: A solution of the technetium-99m complex of compound 1 was made as follows. A vial contained 0.5 mg compound 1; […] stannous chloride dihydrate; and 4.5 mg sodium chloride; freeze-dried and sealed under nitrogen. To this was added 5.0 ml of sodium pertechnetate eluate from a 135mCi technetium generator.
Mixed leucocytes were obtained from 34 ml of acid citrate anticoagulated blood by dextran sedimentation. These were washed twice and resuspended in 2.0 ml phosphate buffered saline containing approximately 0.25 mg/ml prostaglandin El. The suspension was incubated with 0.2 ml of the solution of the technetium-99m complex of compound 1. Incubation was at ambient temperature, and samples were removed at intervals for analysis. After two minutes, 60% of the radioactivity was associated with blood cells; after 5 minutes, 83% and after 10 minutes, 89%.

Series [2] can be described thus: Whole body distribution in human volunteers. It counts as in vivo, human volunteer subjects. Conditions: unseparated dl/meso mixture; for Whole body distribution, Bladder / Whole body distribution, Brain / Whole body distribution, Liver: 2 hrs p.i., human. An excerpt: (§1) The following data allows comparison of the relative performance of the complexes of compounds 1 and 2 (an unseparated dl/meso mixture in each case) in human volunteer subjects.
(ii) Whole body distribution

Series [3] in a line: Rat biodistribution of Tc-99m complexes from isolated stereoisomers (Example 24). Conditions: d- versus l-enantiomer; rats.
Method: (§2) 0.1 ml of the Tc-99m complex solution was administered by intravenous injection (lateral tail vein) to each of five or six rats (140-220 g). The injected dose was equivalent to approximately 1 mCi of Tc-99m. Three rats were sacrificed at 2 minutes post injection, and 3 at 1 hour or 2 at 2 hours post injection. At dissection, the organs and blood samples shown in the following table were taken, and assayed for radioactivity. The uptake in each organ or tissue was calculated as a percentage of the total activity recovered.
(§3) Data in Tables (a) and (b) are the mean from 3 animals at each time point.
Series [4] is described as follows: Clinical comparison of dl and meso diastereoisomers of Compound 1, whole body scanning (Example 25a). In kind it is in vivo, normal volunteer subjects (human). Conditions: 20 minutes p.i.; mean; human. How it is done: All clinical studies, involving comparisons between the Tc-99m complexes of dl and meso, and d,l and dl stereoisomers of Compound 1 were conducted in normal volunteer subjects at Aberdeen Royal Infirmary.
(a) Comparison of dl and meso diastereoisomers of Compound 1
Data is then taken from area of interest studies employing a whole body scanning device.

The nature of series [5]: Tomographic imaging of the brain in man. It counts as in vivo, normal volunteers (human). Conditions: in words; unseparated dl/meso mixture; human. As to the method: Tomographic images of the brain were determined using the same complexes in normal volunteers. The device used was a single head rotating gamma camera and minicomputer system. 64 25-second images were accumulated by the gamma camera during 360° circular rotation of the head and shoulders of the volunteer.

Series [6] can be described thus: Blood clearance in human volunteers. It counts as in vivo, human volunteer subjects. Conditions: for % id in blood: unseparated dl/meso mixture, human.
Text: as §1

Series [7] in a line: In vitro stability of Tc-99m complexes (radiochemical purity by thin layer chromatography). It counts as physicochemical. Conditions: for remaining at 2 min: 2 min post formation; for remaining at 2 min / remaining at 1 h / remaining at 2 h: dl/meso mixture, read-out: % of the desired Tc-99m complex; for remaining at 1 h: 60 min post formation; for remaining at 2 h: 120 min post formation; for in vitro stability of the Tc-99m complex: in words, complex of compound 1 versus compound 2. How it is done:
Glass fibre strips impregnated with silica gel form the stationary phase of a fast and accurate analytical system. Two strips, each measuring 20 cm×2 cm were used in each analysis. Approximately five microliters of the solution containing the complex was applied 1 cm from the base of each strip, and one strip developed with saline, the other with methylethylketone (MEK).
Determination of the distribution of radioactivity along each strip was conducted by means of a 100 channel analysis system interfaced to a Nova computer, programmed for peak integration. The Table below indicates the RF values of the major components of the Tc-99m solutions. The observed radiochemical purity of the Tc-99m complexes was generally greater than 80%.
Radiochemical purity determinations by thin layer chromatography were carried out at several time points following formation of the technetium complexes of compounds 1 and 2 (a dl/meso mixture in each case) to determine the stability of the complexes.

Series [8] can be described thus: Animal biodistribution of Tc-99m complexes of ligands, no separation of stereoisomers (Example 22). It counts as in vivo, rats. Conditions: for % id/organ, Blood / % id/organ, Brain / % id/organ, Heart / % id/organ, Liver: i.v. rats, mean of 3 animals. How it is done: The ratio of diastereoisomers in the Tc-99m complexes used in this experiment is not known.
The results at 2 minutes and 1 hour p.i. are the mean of 3 animals.
The results at 2 hours p.i. are the mean of 2 animals.

Series [9] can be described thus: Clinical comparison of d, l and dl stereoisomers of Compound 1 (Example 25b). It counts as in vivo, normal volunteers (human). Conditions: 30 minutes p.i.; mean of three studies; human.
Method: The following table gives the mean of three studies for each stereoisomer, of percentage of injected dose in normal volunteers at 30 minutes p.i.
For series [10] the following is noted: rat, in vivo.
Method: as §2, §3

Entries after “also recorded” stand apart in the source; their conditions may differ. Where two headings read alike, the source gives them in different places.

We go through 3 molecules from patent US4789736A, “Complexes of technetium-99m with propylene amine oximes” (Amersham International plc, priority 1985, dated 1988).

As to `CC(=NO)C(C)NCC(C)(C)CNC(C)C(C)=NO` (racemic) [Compound 1, 4,8-diaza-3,6,6,9-tetramethylundecane-2,10-dione bis oxime], the “radioactivity associated with blood cells” value (from here on “radioactivity associated”) in [1] (after 5 minutes) stood at 83%. Further, the “radioactivity associated” value in series [1] (after 10 minutes) came to 89%. The “radioactivity associated” value in series [1] (after two minutes) was determined as 60%. In [2], the “Whole body distribution, Bladder” value came to 3.9; the “Whole body distribution, Brain” value is 3.70; the “Whole body distribution, Liver” value is 23.35. Also, in series [2] (in words), the “removal of radioactivity from brain in humans” value was “Slow removal of radioactivity from brain” and the “uptake in the brain of humans” value was “Good uptake in the brain”. Moreover, the “difference in brain uptake of the d- and l-enantiomers (factor)” value in series [3] is 1.6. In addition, in series [4], the “% injected activity, Bladder + Urine” value stood at 1.4 % injected activity; the “% injected activity, Brain” value is listed as 1.95 % injected activity; the “% injected activity, Kidneys” value worked out at 1.95 % injected activity; the “% injected activity, Liver” value came out at 13.0 % injected activity. The “quality of tomographic images of the brain” value in series [5] is recorded as “Good quality tomographic images of the brain”. The “% id in blood” value in series [6] (14 minutes post injection) was 9.54 % id. The “% id in blood” value in series [6] (40 minutes post injection) worked out at 7.73 % id. For the same molecule, the “% id in blood” value in [6] (60 minutes post injection) was found to be 6.38 % id. Moreover, in [6] (250 minutes post injection), the “% id in blood” value was 5.26 % id. Moreover, in series [7], the remaining at 2 min worked out at 92%, the remaining at 1 h was 87%, the remaining at 2 h is 79% and the “in vitro stability of the Tc-99m complex” value is “only slow in vitro degradation”. In series [8] (2 min pi), the “% id/organ, Blood” value is reported as 16.7 % id/organ; the “% id/organ, Brain” value came out at 1.5 % id/organ; the “% id/organ, Heart” value came out at 0.4 % id/organ; the “% id/organ, Liver” value was 8.4 % id/organ. In addition, in series [8] (1 hr pi), the “% id/organ, Blood” value came out at 19.6 % id/organ; the “% id/organ, Brain” value turned out to be 1.2 % id/organ; the “% id/organ, Heart” value was determined as 0.2 % id/organ; the “% id/organ, Liver” value was 5.4 % id/organ. Moreover, in series [8] (in words, unseparated dl/meso mixture), the “uptake in the brain of rats” value is “Good uptake in the brain”.

Consider `CC(=NO)C(C)NCCCNC(C)C(C)=NO` (racemic) [Compound 2, 4,8-Diaza-3,9-dimethylundecane-2,10-dione bis oxime], for which, in [2], the “Whole body distribution, Bladder” value worked out at 21.02; the “Whole body distribution, Brain” value amounted to 3.48; the “Whole body distribution, Liver” value was 13.21. Moreover, the “quality of tomographic images of the brain” value in series [5] is given as “less good, due to a higher level of background radiation”. Also, the “% id in blood” value in series [6] (14 minutes post injection) worked out at 11.06 % id. For the same molecule, in series [6] (40 minutes post injection), the “% id in blood” value stood at 6.9 % id. In series [6] (60 minutes post injection), the “% id in blood” value is reported as 5.93 % id. Also, in [6] (250 minutes post injection), the “% id in blood” value came out at 3.98 % id. The “blood and tissue background clearance of activity in humans” value in series [6] (in words, compound 1 versus complex of compound 2) is “Better blood and tissue background clearance”. Besides, in [7], the remaining at 2 min amounted to 82%, the remaining at 1 h was found to be 60%, the remaining at 2 h was 47% and the “in vitro stability of the Tc-99m complex” value is reported as “greatly inferior to that of the complex of compound 1; also recorded: Far better in vitro stability; also recorded: rapid in vitro degradation”. Moreover, the “percent of the Tc-99m not in the form of the complex, Compound 2 relative to Compound 1” value in series [7] (at all times) is “more than twice as great”. In series [8] (2 min pi), the “% id/organ, Blood” value amounted to 14.6 % id/organ; the “% id/organ, Brain” value amounted to 1.6 % id/organ; the “% id/organ, Heart” value was 0.5 % id/organ; the “% id/organ, Liver” value stood at 10.9 % id/organ. Besides, in series [8] (1 hr pi), the “% id/organ, Blood” value is 12.4 % id/organ; the “% id/organ, Brain” value was 1.4 % id/organ; the “% id/organ, Heart” value turned out to be 0.5 % id/organ; the “% id/organ, Liver” value was 4.9 % id/organ.

With `CC(=NO)C(C)NCC(C)CNC(C)C(C)=NO` (centres unmarked) [Compound 1 1], in series [9], the “percentage of injected dose, Brain” value is 4.30 percentage of injected dose; the “percentage of injected dose, Kidney” value was 4.0 percentage of injected dose; the “percentage of injected dose, Liver” value is given as 8.06 percentage of injected dose. Further, in series [10] (2 min), the “% id/organ, Blood” value was 11.0 % id/organ; the “% id/organ, Brain” value was found to be 2.6 % id/organ; the “% id/organ, Liver” value worked out at 9.6 % id/organ. Moreover, in [10] (60 min), the “% id/organ, Blood” value was found to be 11.1 % id/organ; the “% id/organ, Brain” value is on record as 2.2 % id/organ; the “% id/organ, Liver” value is 7.7 % id/organ.
